Experimental data taken from patent US8637518B2, “Pyridazinone derivatives” (MERCK PATENT GmbH, priority 2008, dated 2014).

How the values were obtained:
[1] = molecular target: T1, Met kinase (Homo sapiens, UniProt P08581); experiment: Met kinase inhibition, enzyme assay (flashplate method); type: biochemical
T1 construct: 6His (N); purchased Upstate 14-526; host or cells: Sf21 insect cells (S. frugiperda), baculovirus
Text: According to the manufacturer's data (Met, active, upstate, catalogue No. 14-526), Met kinase is expressed for the purposes of protein production in insect cells (Sf21; S. frugiperda) and subsequent affinity-chromatographic purification as “N-terminal 6His-tagged” recombinant human protein in a baculovirus expression vector.
The test plates used are 96-well Flashplate® microtitre plates from Perkin Elmer (Cat. No. SMP200). The components of the kinase reaction described below are pipetted into the assay plate. The Met kinase and the substrate poly Ala-Glu-Lys-Tyr, (pAGLT, 6:2:5:1), are incubated for 3 hrs at room temperature with radioactively labelled ^33P-ATP in the presence and absence of test substances in a total volume of 100 μl. The reaction is terminated using 150 μl of a 60 mM EDTA solution. After incubation for a further 30 min at room temperature, the supernatants are filtered off with suction, and the wells are washed three times with 200 μl of 0.9% NaCl solution each time. The measurement of the bound radioactivity is carried out by means of a scintillation measuring instrument (Topcount NXT, Perkin-Elmer).
The full value used is the inhibitor-free kinase reaction. This should be approximately in the range 6000-9000 cpm. The pharmacological zero value used is staurosporin in a final concentration of […]. The inhibitory values ([…]) are determined using the RS1_MTS program.
Kinase reaction conditions per well:
• 30 μl of assay buffer • 10 μl of substance to be tested in assay buffer with 10% of DMSO • 10 μl of ATP (final concentration 1 μM cold, 0.35 μCi of ^33P-ATP) • 50 μl of Met kinase/substrate mixture in assay buffer; • (10 ng of enzyme/well, 50 ng of pAGLT/well)
Solutions used: • Assay buffer:
50 mM HEPES • 3 mM magnesium chloride • 3 μM sodium orthovanadate • 3 mM manganese(II) chloride • 1 mM dithiothreitol (DTT)
pH=7.5 (to be set using sodium hydroxide) • Stop solution:
60 mM Titriplex III (EDTA) • ^33P-ATP: Perkin-Elmer; • Met kinase: Upstate, Cat. No. 14-526, Stock 1 μg/10 μl; spec. activity 954 U/mg; • Poly-Ala-Glu-Lys-Tyr, 6:2:5:1: Sigma Cat. No. P1152 In-vivo tests

T1 sequence (P08581 974-1390 limits assumed): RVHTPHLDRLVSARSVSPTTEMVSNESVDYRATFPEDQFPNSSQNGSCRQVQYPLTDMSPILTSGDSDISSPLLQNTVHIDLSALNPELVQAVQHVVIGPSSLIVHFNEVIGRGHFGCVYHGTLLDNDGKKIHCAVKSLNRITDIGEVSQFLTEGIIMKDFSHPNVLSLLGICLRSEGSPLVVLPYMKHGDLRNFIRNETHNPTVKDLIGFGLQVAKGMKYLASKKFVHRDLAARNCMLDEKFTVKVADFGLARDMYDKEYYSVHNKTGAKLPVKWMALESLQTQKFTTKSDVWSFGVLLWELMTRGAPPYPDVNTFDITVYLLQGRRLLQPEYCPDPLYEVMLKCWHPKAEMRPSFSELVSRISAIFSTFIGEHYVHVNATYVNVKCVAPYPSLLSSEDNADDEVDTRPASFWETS

| SMILES | IC50 [1] [nM] | melting point [°C] |
| --- | --- | --- |
| N#Cc1cccc(-c2ccc(=O)n(Cc3cccc(-c4ncc(OCCNC(=O)[C@@H]5C[C@@H](O)CN5)cn4)c3)n2)c1 [Compound A4, N-[2-(2-{3-[3-(3-Cyanophenyl)-6-oxo-6H-pyridazin-1-ylmethyl]phenyl}-pyrimidin-5-yloxy)ethyl]-(2S,4R)-4-hydroxypyrrolidine-2-carboxamide] | 10 to 1000 | – |
| CC(=O)N[C@H](C(=O)NCCOc1cnc(-c2cccc(Cn3nc(-c4cnn(C)c4)ccc3=O)c2)nc1)C(C)C [Compound A7, (S)-2-acetylamino-3-methyl-N-[2-(2-{3-[3-(1-methyl-1H-pyrazol-4-yl)-6-oxo-6H-pyridazin-1-ylmethyl]phenyl}pyrimidin-5-yloxy)ethyl]-butyramide] | 10 to 1000 | – |
| CC(C)(C)OC(=O)N1CCC(COc2cnc(-c3cccc(Cn4nc(-c5cccc(C(N)=O)c5)ccc4=O)c3)nc2)CC1 [Compound C18, tert-butyl 4-(2-{3-[3-(3-carbamoylphenyl)-6-oxo-6H-pyridazin-1-ylmethyl]-phenyl}pyrimidin-5-yloxymethyl)piperidine-1-carboxylate] | – | 197 to 198 |
| CC(C)Oc1cnc(-c2cccc(Cn3nc(-c4cccc(C#N)c4)ccc3=O)c2)nc1 [Compound D2, 3-{1-[3-(5-Isopropoxypyrimidin-2-yl)benzyl]-6-oxo-1,6-dihydropyridazin-3-yl}benzonitrile] | – | 200 to 201 |
| N#Cc1cccc(-c2ccc(=O)n(Cc3cccc(-c4ncc(OCC5CC5CN)cn4)c3)n2)c1 (centres unmarked) [Compound A13c, 3-(1-{3-[5-(2-Aminomethylcyclopropylmethoxy)pyrimidin-2-yl]benzyl}-6-oxo-1,6-dihydropyridazin-3-yl)benzonitrile] | 10 to 1000 | – |
| Cn1cc(-c2ccc(=O)n(Cc3cccc(-c4ncc(OCC5(CN)CC5)cn4)c3)n2)cn1 [Compound A14, 2-{3-[5-(1-Aminomethylcyclopropylmethoxy)pyrimidin-2-yl]benzyl}-6-(1-methyl-1H-pyrazol-4-yl)-2H-pyridazin-3-one] | 10 to 1000 | – |
| N#Cc1cccc(-c2ccc(=O)n(Cc3cccc(-c4ncc(O[C@H]5CCC[C@H]5N)cn4)c3)n2)c1 [Compound A19, 3-(1-{3-[5-((1S,2R)-2-Aminocyclopentyloxy)pyrimidin-2-yl]benzyl}-6-oxo-1,6-dihydropyridazin-3-yl)benzonitrile] | 10 to 1000 | – |
| N#Cc1cccc(-c2ccc(=O)n(Cc3cccc(-c4ncc(OC5CCC(O)C5)cn4)c3)n2)c1 (centres unmarked) [Compound A23, 3-(1-{3-[5-(3-Hydroxycyclopentyloxy)pyrimidin-2-yl]benzyl}-6-oxo-1,6-dihydro-pyridazin-3-yl)benzonitrile] | 10 to 1000 | – |
| Cn1cc(-c2ccc(=O)n(Cc3cccc(-c4ncc(OCC5CCC(CN)CC5)cn4)c3)n2)cn1 (centres unmarked) [Compound A13a, 2-{3-[5-(4-aminomethylcyclohexylmethoxy)pyrimidin-2-yl]benzyl}-6-(1-methyl-1H-pyrazol-4-yl)-2H-pyridazin-3-one] | 10 to 1000 | – |
| N#Cc1cccc(-c2ccc(=O)n(Cc3cccc(-c4ncc(OCC5CCC(CN)CC5)cn4)c3)n2)c1 (centres unmarked) [Compound A13b, 3-(1-{3-[5-(4-Aminomethylcyclohexylmethoxy)pyrimidin-2-yl]benzyl}-6-oxo-1,6-dihydropyridazin-3-yl)benzonitrile] | 10 to 1000 | – |
| Cn1cc(-c2ccc(=O)n(Cc3cccc(-c4ncc(OCCC[C@H](N)C(=O)O)cn4)c3)n2)cn1 [Compound A11, (S)-2-Amino-5-(2-{3-[3-(1-methyl-1H-pyrazol-4-yl)-6-oxo-6H-pyridazin-1-yl-methyl]phenyl}pyrimidin-5-yloxy)pentanoic acid] | 10 to 1000 | – |
| Cn1cc(-c2ccc(=O)n(Cc3cccc(-c4ncc(OCCNC(=O)[C@@H]5C[C@@H](O)CN5)cn4)c3)n2)cn1 [Compound A2, N-[2-(2-{3-[3-(1-Methyl-1H-pyrazol-4-yl)-6-oxo-6H-pyridazin-1-ylmethyl]-phenyl}pyrimidin-5-yloxy)ethyl]-(2S,4R)-4-hydroxypyrrolidine-2-carboxamide] | 10 to 1000 | – |

The next lines start with the values.

| IC50 [1] [nM] | melting point [°C] | SMILES |
| --- | --- | --- |
| – | 149 to 150 | N#Cc1cccc(-c2ccc(=O)n(Cc3cccc(-c4ncc(OCCN5CCNCC5)cn4)c3)n2)c1 [Compound C5, 3-(6-oxo-1-{3-[5-(2-piperazin-1-ylethoxy)pyrimidin-2-yl]benzyl}-1,6-dihydro-pyridazin-3-yl)benzonitrile] |
| 10 to 1000 | – | N#Cc1cccc(-c2ccc(=O)n(Cc3cccc(-c4ncc(OCC5CCN(CC6CC6)CC5)cn4)c3)n2)c1 [Compound A24, 3-(1-{3-[5-(1-cyclopropylmethylpiperidin-4-ylmethoxy)-pyrimidin-2-yl]benzyl}-6-oxo-1,6-dihydropyridazin-3-yl)benzonitrile] |
| 10 to 1000 | – | CN(C)C[C@H]1C[C@@H]1COc1cnc(-c2cccc(Cn3nc(-c4cccc(C#N)c4)ccc3=O)c2)nc1 [Compound A17, 3-(1-{3-[5-((1S,2S)-2-Dimethylaminomethylcyclopropylmethoxy)pyrimidin-2-yl]benzyl}-6-oxo-1,6-dihydropyridazin-3-yl)benzonitrile] |
| 10 to 1000 | – | Cn1cc(-c2ccc(=O)n(Cc3cccc(-c4ncc(OCCNC(=O)[C@@H]5CCCN5)cn4)c3)n2)cn1 [Compound A3] |
| 10 to 1000 | – | CC(C)(C)OC(=O)NCCOc1cnc(-c2cccc(Cn3nc(-c4cccc(C#N)c4)ccc3=O)c2)nc1 [Compound B2, tert-butyl [2-(2-{3-[3-(3-cyanophenyl)-6-oxo-6H-pyridazin-1-ylmethyl]phenyl}-pyrimidin-5-yloxy)ethyl]carbamate] |
| – | 229 to 230 | COc1cnc(-c2cccc(Cn3nc(-c4cccc(C#N)c4)ccc3=O)c2)nc1 [Compound D3, 3-{1-[3-(5-Methoxypyrimidin-2-yl)benzyl]-6-oxo-1,6-dihydropyridazin-3-yl}-benzonitrile] |
| 10 to 1000 | – | CC(=O)N[C@H](C(=O)NCCOc1cnc(-c2cccc(Cn3nc(-c4cccc(C#N)c4)ccc3=O)c2)nc1)C(C)C [Compound A8, (S)-2-acetylamino-N-[2-(2-{3-[3-(3-cyanophenyl)-6-oxo-6H-pyridazin-1-yl-methyl]phenyl}pyrimidin-5-yloxy)ethyl]-3-methylbutyramide] |
| 10 to 1000 | – | N#Cc1cccc(-c2ccc(=O)n(Cc3cccc(-c4ncc(OCCNC(=O)[C@@H]5CCCN5)cn4)c3)n2)c1 [Compound A5, N-[2-(2-{3-[3-(3-Cyanophenyl)-6-oxo-6H-pyridazin-1-ylmethyl]phenyl}-pyrimidin-5-yloxy)ethyl]-(S)-pyrrolidine-2-carboxamide] |
| 10 to 1000 | – | CO[C@@H](C)[C@H](N)C(=O)NCCOc1cnc(-c2cccc(Cn3nc(-c4cnn(C)c4)ccc3=O)c2)nc1 [Compound A1, (2S,3S)-2-amino-3-methoxy-N-[2-(2-{3-[3-(1-methyl-1H-pyrazol-4-yl)-6-oxo-6H-pyridazin-1-ylmethyl]phenyl}pyrimidin-5-yloxy)ethyl]-butyramide] |
| 10 to 1000 | – | CO[C@@H](C)[C@H](N)C(=O)NCCOc1cnc(-c2cccc(Cn3nc(-c4cccc(C#N)c4)ccc3=O)c2)nc1 [Compound A6, (2S,3S)-2-Amino-N-[2-(2-{3-[3-(3-cyanophenyl)-6-oxo-6H-pyridazin-1-yl-methyl]phenyl}pyrimidin-5-yloxy)ethyl]-3-methoxybutyramide] |
| 10 to 1000 | – | N#Cc1cccc(-c2ccc(=O)n(Cc3cccc(-c4ncc(O[C@@H]5CN[C@H](C(=O)O)C5)cn4)c3)n2)c1 [Compound A10, (2S,4S)-4-(2-{3-[3-(3-cyanophenyl)-6-oxo-6H-pyridazin-1-yl-methyl]phenyl}pyrimidin-5-yloxy)pyrrolidine-2-carboxylic acid] |
| 10 to 1000 | – | N#Cc1cccc(-c2ccc(=O)n(Cc3cccc(-c4ncc(OCC5(CN)CC5)cn4)c3)n2)c1 [Compound A15, 3-(1-{3-[5-(1-Aminomethylcyclopropylmethoxy)pyrimidin-2-yl]benzyl}-6-oxo-1,6-dihydropyridazin-3-yl)benzonitrile] |
| 10 to 1000 | – | CN(C)CC1CCC(COc2cnc(-c3cccc(Cn4nc(-c5cnn(C)c5)ccc4=O)c3)nc2)CC1 (centres unmarked) [Compound A13, 2-{3-[5-(4-dimethylaminomethylcyclohexylmethoxy)pyrimidin-2-yl]benzyl}-6-(1-methyl-1H-pyrazol-4-yl)-2H-pyridazin-3-one] |
| 10 to 1000 | – | Cn1cc(-c2ccc(=O)n(Cc3cccc(-c4ncc(O[C@H]5CCC[C@H]5N)cn4)c3)n2)cn1 [Compound A20, 2-{3-[5-((1S,2R)-2-Aminocyclopentyloxy)pyrimidin-2-yl]benzyl}-6-(1-methyl-1H-pyrazol-4-yl)-2H-pyridazin-3-one] |
